Reference: patent US12661338B2, “Heterocyclic compounds as modulators of beta-catenin / TCF4 interaction” (AGENCY FOR SCIENCE, TECHNOLOGY AND RESEARCH, priority 2019, dated 2026)
Where two headings read alike, the source gives them in different places.

Tests used:
[1] = tested on: Wnt signalling (TOPFlash reporter, STF3A cells); assay: Wnt STF3A TOPFlash reporter dose response (constitutive Wnt3A); type: cell-based
Protocol: Wnt STF reporter cells (HEK 293 cells stably transfected with TOPFlash reporter) and STF3A reporter cells (STF cells with constitutive secretion of Wnt3A) were kind gifts from David Virshup (Duke-NUS Graduate Medical School, Singapore). HCT116, DLD-1, and SW480 cell lines were obtained from ATCC. The Hippo pathway TEAD reporter (cat. #60618) and Myc signalling pathway reporter (cat. #60520) cells lines were purchased from BPS Bioscience, Inc.
The Wnt STF3A reporter cells were seeded as 20,000 cells in 100 μL culture medium per well in 96-well plates (Corning cat. #3903, Falcon cat. #353072). The next day, 5-fold dilutions of the compounds in DMSO were added to the cells at a final concentration of 1% DMSO. After 24 hr incubation, the viability of the cells was determined with cell counting kit-8 (CCK-8, Dojindo cat. #CK04) cell viability reagent according to the manufacturer's protocol while the TOPFlash reporter activity was determined with Steady-Glo luciferase reagent.
The average signal from DMSO treated wells was calculated for each plate, and the signal from each treatment well was normalized against the average DMSO signal from the respective plate. The normalized values were plotted against the concentrations tested using GraphPad Prism 5, and the EC50 values were determined through either three- or four-parameter nonlinear regression.

[2] = molecular target: T1, His-tagged human β-cat (134-668) (Homo sapiens, UniProt P35222); assay: SPR binding to β-cat
T1 construct: His-tagged human β-cat (134-668); made in house; host or cells: E. coli BL21(DE3)
T1 sequence (P35222 134-668): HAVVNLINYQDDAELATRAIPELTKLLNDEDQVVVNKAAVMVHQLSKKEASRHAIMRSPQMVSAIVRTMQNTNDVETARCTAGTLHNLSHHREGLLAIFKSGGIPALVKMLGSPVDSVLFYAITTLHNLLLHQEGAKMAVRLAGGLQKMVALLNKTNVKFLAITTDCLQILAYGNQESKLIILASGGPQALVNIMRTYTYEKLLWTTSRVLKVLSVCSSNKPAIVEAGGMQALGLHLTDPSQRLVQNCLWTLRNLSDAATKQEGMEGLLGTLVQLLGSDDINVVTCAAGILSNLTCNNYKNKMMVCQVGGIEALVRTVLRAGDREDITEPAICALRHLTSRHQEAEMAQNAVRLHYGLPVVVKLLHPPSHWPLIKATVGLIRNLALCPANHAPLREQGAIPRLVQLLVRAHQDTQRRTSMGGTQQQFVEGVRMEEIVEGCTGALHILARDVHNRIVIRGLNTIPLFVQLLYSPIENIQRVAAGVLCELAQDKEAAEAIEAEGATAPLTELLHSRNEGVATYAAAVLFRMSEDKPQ
Protocol: BL21(DE3) cells harboring pET-28 β-cat expression vector of His-tagged human β-cat (134-668) were cultured at 37° C. until OD600=0.6-0.8. The cells were then induced with 500 μM isopropyl-β-D-thiogalactopyranoside (IPTG) for 6-8 hr at 23° C. Cells were lysed by sonication in lysis buffer containing 20 mM Tris (pH 8.8), 250 mM NaCl, 2 mM DTT, 5% glycerol, 0.1% Triton X-100, and cOmplete protease inhibitor cocktail (EDTA free, Roche cat. #11873580001). The lysate was incubated with Ni-NTA agarose beads (Qiagen cat. #30210) at 4° C. for 1 hr, and the beads were then washed with lysis buffer containing 20 mM imidazole. Bound protein was eluted with buffer containing 20 mM Tris (pH 8.8), 250 mM NaCl, 0.5 mM tris(2-carboxyethyl)phosphine (TCEP), 5% glycerol, and 250 mM imidazole.
Surface plasmon resonance experiments were performed using a BIACORE T100 (GE Healthcare) on a CM5 series S sensor chip (GE Healthcare cat. #BR-1005-30). His-tagged β-cat (60 kDa, >90% pure based on SDS-PAGE) was immobilized using amine-coupling chemistry. The surfaces of flow cells one and two were activated with a 1:1 mixture of 0.1 M NHS (N-hydroxysuccinimide) and 0.1 M EDC (3-(N,N-dimethylamino) propyl-N-ethylcarbodiimide) at a flow rate of 5 μL/min. […]

[3] = tested on: Wnt target proteins in HCT116 cells; assay: Western blotting of Wnt target and Wnt pathway proteins in HCT116 cells; type: cell-based; details: 50 μM, 18 hr
Protocol: HCT116 cells were treated with compounds for 18 hr at a final concentration of 50 μM, 1% DMSO. Cells were lysed on ice in RIPA buffer (Thermo cat. #89900) containing cOmplete™ protease inhibitor cocktail (Roche cat. #11697498001) and PhosSTOP phosphatase inhibitor cocktail (Roche cat. #04906837001). 30 μg per sample of total cellular protein was resolved by SDS-PAGE and blotted onto PVDF membrane (Millipore cat. #IPVH00010). Primary antibodies were incubated overnight at 4° C. and the blots were detected with either IRDye 800CW goat anti-rabbit antibody (LI-COR cat. #926-32211) or IRDye 680RD goat anti-mouse antibody (LI-COR cat. #926-68070) at 1:5000 dilution. Signals were visualized with the LI-COR Odyssey CLx imaging system and bands were quantified using LI-COR Image Studio data analysis software. The primary antibodies used were Met (Cell Signalling Technology cat. #8198, 1:1000), cyclin D1 (Cell Signalling Technology cat. #2978, 1:1000), survivin (Santa Cruz cat. #sc-10811, 1:500), ECAD (Cell Signalling Technology cat. #3195, 1:1000), TCF4/TCF7L2 (Cell Signalling Technology cat. #2569, 1:1000), β-cat (Cell Signalling Technology cat. #8480, 1:1000), β-actin (Abcam cat. #ab8226, 1:3000).

[4] = tested on: Wnt target genes in HCT116 CRC cells; assay: Expression of beta-catenin (CTNNB1) and Wnt target genes in HCT116 CRC cells; type: cell-based
Protocol: The effects of the GB1874 analogues were tested on the expression of Wnt target genes in HCT116 CRC cells.

CRC1775 = assay: Viability of primary patient-derived colorectal cancer cell line; type: cell-based

## CCc1ccc(OCc2nnc(SC3CCCC3=O)n2C(C)c2ccccc2)cc1 (stereo not drawn) [GB1874]
[1]; Table 1, STF3A reporter cells, 24 hr, read-out: IC50 Wnt (STF3A)
  IC50: 26 µM
[1]; Table 3, STF3A reporter cell line, read-out: STF3A Inhibition IC50
  IC50: 27 µM
[2]; SPR steady state, n=3, 25° C., read-out: dissociation constant KD
  Kd: 76 ± 13 µM
[2]; SPR steady-state binding curve
  Hill slope of the best fit curve: greater than 1
[3]
  expression of Wnt target genes c-Met, cyclin D1 and survivin (Western blotting): most effective at reducing the expression of these proteins
  expression of β-cat, ECAD and TCF4 (Western blotting): minimal effect on the expression of β-cat itself, or the expression of its partner proteins, such as ECAD and TCF4
[4]
  beta-catenin (CTNNB1) gene expression: lesser effect
  expression of Wnt target genes AXIN2, BIRC5, BMP4, CCND1: potently inhibit Wnt target genes
CRC1775
  EC50: 74 µM
